Measurements published in publication PMC5769128, “Human UDP-Glucuronosyltransferase 2B4 and 2B7 Are Responsible for Naftopidil Glucuronidation in Vitro” (Frontiers in Pharmacology, 2018).

Legend:
[1] = Kinetics of NAF enantiomer glucuronidation by human liver microsomes; type: in vitro ADME; conditions: human, human liver microsomes, pH 7.5; NAF glucuronidation by HLM; 2.5–80 μM substrate, 45 min
Protocol: (§1) All glucuronidation assays were conducted in an incubation volume of 200 μL. Incubations were performed at 37°C in 50 mM Tris–HCl buffer (pH 7.5) with 10 mM magnesium chloride, 1 mg protein/mL of enzyme (microsomes and recombinant human UGTs), alamethicin (100 μg of alamethicin/mg microsomal protein), and NAF enantiomers (2.5–80 μM). The reaction was initiated by the addition of UDPGA (5 mM) and incubated at 37°C in a shaking water bath for 45 min. The reaction was terminated by the addition of 200 μL of ice-cold acetonitrile containing the IS (1 μM) and then centrifuged at 5000 ×g for 10 min at 4°C. The supernatant fraction was injected into the RRLC-MS/MS apparatus. Protein concentration (0.5–2 mg/mL) and incubation time (15–180 min) were optimized in preliminary studies to be within initial linear rate conditions.
(§2) Kinetic parameters were assessed in the HLM, RLM, HKM, RKM, and recombinant human UGTs (UGT2B4, 2B7, and 1A9).

[2] = test system: human liver microsomes (HLM); experiment: as above; type: in vitro ADME
Protocol: as §1, §2

[3] = Kinetics of NAF enantiomer glucuronidation by human kidney microsomes; type: in vitro ADME; conditions: human, human kidney microsomes, pH 7.5; NAF glucuronidation by HKM
Protocol: as §1, §2

[4] = test system: human kidney microsomes (HKM); experiment: as above; type: in vitro ADME
Protocol: as §1, §2

UGT2B15 = biological target: T1, UGT2B15 (Homo sapiens, UniProt P54855); experiment: Inhibition screening of recombinant UGTs by NAF enantiomers, UGT2B15 (4-MU); type: in vitro ADME; conditions: recombinant UGT2B15, probe 4-MU, 100 μM NAF enantiomer, read-out: Inhibition of 4-MU-G formation
T1 construct: purchased BD Gentest
T1 sequence (P54855 24-530): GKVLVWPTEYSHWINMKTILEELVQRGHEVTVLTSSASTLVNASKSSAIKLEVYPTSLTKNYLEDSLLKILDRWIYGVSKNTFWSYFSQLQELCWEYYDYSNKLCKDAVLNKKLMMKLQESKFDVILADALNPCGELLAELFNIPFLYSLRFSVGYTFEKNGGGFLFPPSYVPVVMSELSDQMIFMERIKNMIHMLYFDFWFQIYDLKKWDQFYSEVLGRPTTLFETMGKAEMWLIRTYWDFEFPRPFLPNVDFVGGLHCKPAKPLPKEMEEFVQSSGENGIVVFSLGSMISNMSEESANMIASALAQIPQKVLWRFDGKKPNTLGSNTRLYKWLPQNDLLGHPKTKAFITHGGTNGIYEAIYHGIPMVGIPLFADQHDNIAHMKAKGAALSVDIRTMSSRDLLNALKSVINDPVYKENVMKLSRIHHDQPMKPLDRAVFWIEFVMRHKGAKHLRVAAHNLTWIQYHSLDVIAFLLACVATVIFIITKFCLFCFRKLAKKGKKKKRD
Protocol: (§3) The inhibition screening study was performed by investigating the 12 recombinant UGTs with 10 and 100 μM NAF enantiomer. […] 4-MU, as a non-specific substrate, was added to the other incubated samples. Instead of NAF enantiomers, the same volume of water was added to be the control sample. […] The formation of 4-MU-G and TFP-G produced from the 12 incubation system were analyzed by HPLC. The instrument parameters for the LC were as follows: system, Agilent 1260; Agilent Eclipse Plus C18 (2.1 mm × 50 mm, 1.8 μm, Santa Clara, CA, United States); mobile phase, methanol: 0.1% formic acid in water (0–3 min, 35:65; 3.1–4.5 min, 65:35; 4.6–5 min, 35:65); flow rate, 0.4 mL/min; column temperature, 25°C; and injection volume, 2 μL. The retention times of 4-MU, 4-MU-G, TFP, TFP-G, and MU (IS) were 1.5, 0.5, 2.2, 1.8, and 1.0 min, respectively.

UGT1A7 = biological target: T2, UGT1A7 (Homo sapiens, UniProt Q9HAW7); experiment: Inhibition screening of recombinant UGTs by NAF enantiomers, UGT1A7 (4-MU); type: in vitro ADME; conditions: recombinant UGT1A7, probe 4-MU, 100 μM NAF enantiomer, read-out: Inhibition of 4-MU-G formation
T2 construct: purchased BD Gentest
T2 sequence (Q9HAW7 26-530): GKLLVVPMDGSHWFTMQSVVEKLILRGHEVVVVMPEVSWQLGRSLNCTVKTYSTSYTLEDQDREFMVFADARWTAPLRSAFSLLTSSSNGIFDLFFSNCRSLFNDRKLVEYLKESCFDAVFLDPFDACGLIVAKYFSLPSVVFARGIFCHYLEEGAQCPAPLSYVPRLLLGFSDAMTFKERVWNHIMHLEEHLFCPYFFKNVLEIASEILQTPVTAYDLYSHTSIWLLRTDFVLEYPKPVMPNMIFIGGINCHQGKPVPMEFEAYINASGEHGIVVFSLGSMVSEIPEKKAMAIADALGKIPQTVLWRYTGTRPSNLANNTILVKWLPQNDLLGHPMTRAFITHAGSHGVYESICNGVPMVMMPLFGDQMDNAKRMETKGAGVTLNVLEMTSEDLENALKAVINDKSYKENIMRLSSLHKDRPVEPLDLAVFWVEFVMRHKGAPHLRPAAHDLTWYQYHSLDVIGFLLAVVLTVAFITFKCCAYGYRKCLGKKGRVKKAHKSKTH
Protocol: as §3

[5] = biological target: T3, recombinant human UGT1A10 (Homo sapiens, UniProt Q9HAW8); experiment: UGT reaction screening of NAF enantiomers, UGT1A10; conditions: 10 μM substrate, 45 min
T3 sequence (Q9HAW8 26-530): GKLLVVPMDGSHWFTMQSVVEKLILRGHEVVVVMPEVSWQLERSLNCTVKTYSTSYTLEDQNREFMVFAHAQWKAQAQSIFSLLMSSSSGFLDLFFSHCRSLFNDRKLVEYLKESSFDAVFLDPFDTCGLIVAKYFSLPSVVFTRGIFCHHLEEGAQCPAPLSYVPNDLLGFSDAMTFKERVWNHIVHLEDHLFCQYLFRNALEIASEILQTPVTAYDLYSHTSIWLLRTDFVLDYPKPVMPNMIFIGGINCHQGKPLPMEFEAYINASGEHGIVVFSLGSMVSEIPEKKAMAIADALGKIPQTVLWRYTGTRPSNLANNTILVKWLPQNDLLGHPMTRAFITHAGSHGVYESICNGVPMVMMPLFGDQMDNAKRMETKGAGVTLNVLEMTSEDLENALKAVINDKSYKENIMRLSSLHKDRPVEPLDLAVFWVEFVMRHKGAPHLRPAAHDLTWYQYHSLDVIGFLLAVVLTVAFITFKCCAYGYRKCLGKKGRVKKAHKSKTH

## COc1ccccc1N1CCN(C[C@@H](O)COc2cccc3ccccc23)CC1 [R(+)-NAF]
[1]
  Km at 45 min: 48 µM
[2]
  Kinetics type: Michaelis–Menten model
[3]
  Km at 45 min: 40 µM
[4]
  Kinetics type: Michaelis–Menten model
UGT2B15
  inhibition at 100 μM: > 75%
UGT1A7
  inhibition at 100 μM: > 75%
[5]
  Glucuronide formation by UGT1A10: No R(+)-NAF-G was detected

## COc1ccccc1N1CCN(C[C@H](O)COc2cccc3ccccc23)CC1 [S(-)-NAF]
[1]
  Km at 45 min: 19 µM
[2]
  Kinetics type: Michaelis–Menten model
[3]
  Km at 45 min: 35 µM
[4]
  Kinetics type: substrate inhibition model
UGT2B15
  inhibition at 100 μM: > 75%
UGT1A7
  inhibition at 100 μM: > 75%
[5]
  Glucuronide formation by UGT1A10: no activity
